Assay results published in patent US20230172962A1, “NRTIS, NRTI METABOLITES, AND NRTI ANALOGS FOR MACULAR DEGENERATION AND VIRAL INFECTIONS” (priority 2020, published 2023).

Tests used:
[1] = tested on: cleavage of pro-caspase-1 into active caspase-1 (NLRP3 inflammasome activation); assay: Western blot of Alu RNA-induced caspase-1 cleavage (inflammasome activation) in BMDMs; type: cell-based; conditions: mouse BMDMs, 200 μM compound for 1 hour, then Alu RNA transfection overnight, FIG. 1
Protocol: (§1) Cell Stimulation. Bone marrow derived macrophages (BMDMs) were treated with 200 μM Zidovudine (AZT), GAZT, AMT, or LSO for 1 hour. Cells were transfected with Alu RNA overnight using Lipofectamine 3000 (Invitrogen) according to manufacturer's instructions.
Western blotting. Serum free media (1 mL) from stimulated BMDMs was transferred into fresh tubes and centrifuged for 10 min at 12,000 rpm at 4° C. 15 μl of 10% sodium deoxycholate was added to the supernatants, vortexed and kept on ice. 72 μl Trichloroacetic acid (Sigma-Aldrich, St. Louis,. Mo., United States of America) was subsequently added and the tubes were kept on ice overnight. After centrifugation for 30 min at 12,000 rpm at 4° C., the pellet was washed twice with 500 μl ice-cold acetone. The pellet was dried and boiled with LDS Sample Buffer and β-mercaptoethanol (Sigma-Aldrich). The precipitated protein was analyzed by immunoblotting.
The ability of NRTI and NRTI metabolites to inhibit inflammasome activation was tested by western blot.

[2] = tested on: IL-1β release; assay: ELISA of Alu RNA-induced IL-1β release from BMDMs; type: cell-based; conditions: mouse BMDMs, 200 μM compound for 1 hour, then Alu RNA transfection overnight, FIG. 2
Protocol: as §1
Enzyme-linked immunosorbent assay (ELISA). 1.2 million cells/mL were seeded per well in 6-well cell culture dishes overnight and stimulated as mentioned above. Secreted mouse IL-1β in the medium were detected by ELISA (R&D Systems, Inc., Minneapolis, Minn., United States of America) according to the manufacturer's instructions.
The ability of NRTI and NRTI metabolites to inhibit IL-1β release was tested by ELISA.

[3] = tested on: laser-induced choroidal neovascularization (CNV); assay: Laser-induced choroidal neovascularization, mouse model of neovascular (wet) macular degeneration; type: in vivo; conditions: wild-type C57BL/6J mice, CNV lesion volume 7 days after laser; FIGS. 3A, 3B, 4
Protocol: (§2) Animals. Both male and female wild-type (WT) C57BL/6J mice (The Jackson Laboratory, Bar Harbor, Me., United States of America) between 6-10 weeks of age were used in this study. For all procedures, anesthesia was achieved by intraperitoneal injection of 100 mg/kg ketamine hydrochloride (Fort Dodge Animal Health, Overland Park, Kans., United States of America) and 10 mg/kg xylazine (Phoenix Scientific, Inc., St. Joseph, Mo., United States of America), and pupils were dilated with topical 1% tropicamide and 2.5% phenylephrine hydrochloride (Alcon Laboratories, Inc., Ft. Worth, Tex., United States of America). All animal experiments were approved by the Institutional Animal Care and Use Committees of the University of Virginia (Charlottesville, Va., United States of America) and was performed in accordance with the Statement for the Use of Animals in Ophthalmic and Visual Research of the Association for Research in Vision and Ophthalmology (Washington, D.C., United States of America).
(§3) Subretinal and intravitreous injections. Subretinal injections (SRI) (1 μl) and intravitreous injections (0.5 μl) in mice were performed using a 35-gauge needle (Ito Co.). In vitro transcribed Alu RNA (300 ng/μl) was injected into the subretinal space via SRI. 1 mM of 3′-Azido-3′-deoxythymidine β-D-glucuronide (GAZT; Cayman Chemical, Ann Arbor, Mich., United States of America), Lamivudine (R)-sulfoxide (LSO; Toronto Research Chemicals, Toronto, Canada) 2 mM of 3′-Amino-3′-deoxythymidine (AMT; Toronto Research Chemicals), or PBS was injected into the vitreous humor. Kamuvudines including but not limited to K-8 (2-Et-AZT) and K-9 (3-Me-3TC, a.k.a. 3-Me-lamivudine) were previously described (see U.S. Pat. No. 10,294,220, which is incorporated herein by reference in its entirety).
Choroidal neovascularization. Experimental choroidal neovascularization (CNV) was induced via laser photocoagulation (OcuLight GL, IRIDEX Corp., Mountain View, Calif., United States of America; 180 mW, 100 ms, 75 μm) in both eyes. The volume of the CNV lesions was measured after 7 days using a scanning laser confocal microscope (A1R Nikon confocal microscope system, Nikon USA, Melville, N.Y., United States of America) after 0.7% FITC-isolectin B4 staining (Vector Laboratories, Burlingame, Calif., United States of America, USA). The volume of each lesion was calculated using FIJI software (Schindelin et al., 2012).
The ability of NRTI, NRTI metabolites, and NRTI analogs to inhibit neovascular (wet) macular degeneration in a mouse model was tested. The results are shown in FIGS. 3A and 3B and in FIG. 4.

[4] = tested on: retinal pigmented epithelium (RPE); assay: Alu RNA-induced RPE degeneration, mouse model of atrophic (dry) macular degeneration; type: in vivo; conditions: mice, subretinal Alu RNA, intravitreous 1 mM GAZT or LSO, 2 mM AMT; ZO-1 RPE flat mounts 7 days after injection; FIG. 5
Protocol: as §2, §3

[5] = Cataract formation after administration of fluoxetine preparations to the eye; type: in vivo
[6] = tested on: subretinal fibrosis; assay: Subretinal fibrosis after laser injury / subretinal Alu RNA in mice; type: in vivo, mouse; conditions: wild-type mice, intravitreous injection, laser injury with subretinal Alu RNA, collagen type 1 staining after 7 days, FIGS. 6B
Protocol: as §2
Subretinal and intravitreous injections. Subretinal injections (SRI) (1 μl) and intravitreous injections (0.5 μl) in mice were performed using a 35-gauge needle (Ito Co.). […]
Subretinal fibrosis. […] After mounting in slides, the RPE flat mounts were imaged using a scanning laser confocal microscope (A1R Nikon confocal microscope system, Nikon USA) and the volume of each lesion was calculated by FIJI software. […]

Row | SMILES | Alu RNA-induced cleavage of pro-caspase-1 (50 kDa band) into active caspase-1 (20 kDa band) [1] | Alu RNA-induced IL-1β release [2] | laser-induced choroidal neovascularization (CNV) volume [3] | Alu RNA-induced RPE degeneration [4] | cataract formation, share of subjects [5] | subretinal fibrosis volume [6]
1 | Cc1cn([C@H]2C[C@H](N=[N+]=[N-])[C@@H](CO[C@@H]3O[C@H](C(=O)O)[C@@H](O)[C@H](O)[C@H]3O)O2)c(=O)[nH]c1=O [GAZT, 3′-Azido-3′-deoxythymidine β-D-glucuronide] | inhibited | inhibited | inhibited | inhibited | – | –
2 | Nc1ccn([C@@H]2C[S@@+]([O-])[C@H](CO)O2)c(=O)n1 [LSO, Lamivudine (R)-sulfoxide] | – | inhibited | – | inhibited | – | –
3 | CNCCC(Oc1ccc(C(F)(F)F)cc1)c1ccccc1 (racemic) [racemic fluoxetine, fluoxetine] | – | – | – | – | up to 50% | –
4 | Cc1cn([C@H]2C[C@H](N=[N+]=[N-])[C@@H](CO)O2)c(=O)[nH]c1=O [AZT, 1-[(2R,4S,5S)-4-Azido-5-(hydroxymethyl)oxolan-2-yl]-5-methylpyrimidine-2,4-dione, reference compound] | inhibited | inhibited | inhibited | – | – | reduced subretinal fibrosis volume
5 | CCOC[C@H]1O[C@@H](n2cc(C)c(=O)n(CC)c2=O)C[C@@H]1N=[N+]=[N-] [Kamuvudine K-8, 1-[(2R,4S,5S)-4-azide-5-(ethoxymethyl)oxolan-2-yl)-3-ethyl-5-methyl-1,2,3,4-etrahydropyrimidine-2,4-dione] | – | – | inhibited | – | – | reduced the volume of subretinal fibrosis
6 | Cc1cn([C@H]2C[C@H](N)[C@@H](CO)O2)c(=O)[nH]c1=O [AMT, 3′-Amino-3′-deoxythymidine] | inhibited | inhibited | inhibited | inhibited | – | –
7 | CCOCC1OC(n2ccc(N(CC)CC)nc2=O)CS1 (stereo not drawn) [Kamuvudine K-9] | – | – | inhibited | – | – | –
